From patent publication US8557816B2, “Aurora kinase modulators and method of use” (Amgen Inc., priority 2007, dated 2013)

Experiments:
AuroraA-TPX2 = molecular target: T1, AuroraA-TPX2 (Homo sapiens, UniProt O14965); test: AuroraA-TPX2 Homogeneous Time Resolved Fluorescent (HTRF) kinase assay; format: biochemical; conditions: average; read-out: AurA_IC50_IP (uM Avg)
T1 construct: 20 μL of AuroraA-TPX2 KD GST for a final volume of about 41 μL; GST
T1 sequence (O14965 133-383 limits assumed): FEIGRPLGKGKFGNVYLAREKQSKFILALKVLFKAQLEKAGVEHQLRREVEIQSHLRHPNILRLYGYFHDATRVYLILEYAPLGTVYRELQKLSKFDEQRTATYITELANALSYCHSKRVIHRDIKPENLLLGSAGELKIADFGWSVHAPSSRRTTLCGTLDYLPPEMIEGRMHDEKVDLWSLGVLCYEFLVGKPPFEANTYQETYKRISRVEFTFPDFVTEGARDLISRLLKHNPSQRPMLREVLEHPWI
T1 sequence (Q9ULW0 1-43 partner limits assumed): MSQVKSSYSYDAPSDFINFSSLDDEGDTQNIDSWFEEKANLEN
Outline: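 HTRF read-out (Eu 615 nm to APC 655 nm) of phosphorylated biotin-PLK, detected with 0.02 nM europium anti-phosphoPLK antibody and 0.0005 mg/mL SA-APC after overnight equilibration.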

AuroraB = molecular target: T2, AuroraB (Homo sapiens, UniProt Q96GD4); test: AuroraB Homogeneous Time Resolved Fluorescent (HTRF) kinase assay; format: biochemical; conditions: average; read-out: AurB_IC50_IP (uM Avg)
T2 construct: 20 μL of AuroraB FL H is for a final volume of 41 μL; His
Outline: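 Read-out is time-resolved FRET between europium anti-phospho-H3 antibody and streptavidin-APC, added in EDTA buffer to stop the reaction and equilibrated about 60 min (ex 320, em 615 and 655 nm). Preceding reaction: ~90 min, full-length enzyme, ATP, 0.1 μM biotin-Histone H3 substrate, Mg/Mn HEPES buffer pH 7.5.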

T2 sequence (Q96GD4 whole entry): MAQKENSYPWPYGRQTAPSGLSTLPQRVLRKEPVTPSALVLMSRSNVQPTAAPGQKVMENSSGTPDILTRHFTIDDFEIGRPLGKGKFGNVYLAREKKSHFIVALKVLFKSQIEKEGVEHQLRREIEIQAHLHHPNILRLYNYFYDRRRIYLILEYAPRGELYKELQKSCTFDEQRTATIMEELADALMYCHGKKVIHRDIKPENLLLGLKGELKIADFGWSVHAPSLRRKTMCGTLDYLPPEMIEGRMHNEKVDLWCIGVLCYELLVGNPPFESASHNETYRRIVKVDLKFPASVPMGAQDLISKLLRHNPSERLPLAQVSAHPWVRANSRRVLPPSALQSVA

SMILES	IC50 (AuroraA-TPX2)	IC50 (AuroraB)
CCc1cc(-c2cccc(Cl)c2)nnc1Nc1ccc(Oc2ccnc3cc(OC)cnc23)cc1 [compound 335, 6-(3-chlorophenyl)-4-ethyl-N-(4-(7-methoxy-1,5-naphthyridin-4-yloxy)phenyl)pyridazin-3-amine]	0.062 µM	0.021 µM
COc1cnc2c(Oc3ccc(Nc4nnc(-c5ccc(C(C)C)cc5)c5ccccc45)cc3)ccnc2c1 [compound 155, 4-(4-(1-methylethyl)phenyl)-N-(4-((7-(methyloxy)-1,5-naphthyridin-4-yl)oxy)phenyl)-1-phthalazinamine]	0.029 µM	0.011 µM
COc1cnc2c(Oc3ccc(Nc4nnc(-c5cccc(C)c5)c5ccccc45)cc3)ccnc2c1 [compound 299, N-(4-((7-(methyloxy)-1,5-naphthyridin-4-yl)oxy)phenyl)-4-(3-methylphenyl)-1-phthalazinamine]	0.018 µM	0.015 µM
c1ccc(-c2nnc(Nc3ccc(Oc4ccnc5ccsc45)cc3)c3ccccc23)cc1 [compound 251, 4-phenyl-N-(4-(thieno[3,2-b]pyridin-7-yloxy)phenyl)-1-phthalazinamine]	0.376 µM	0.004 µM
c1ccc2c(-c3ccc4c(c3)CCO4)nnc(Nc3ccc(Oc4ccnc5ccsc45)cc3)c2c1 [compound 272, 4-(2,3-dihydrobenzofuran-5-yl)-N-(4-(thieno[3,2-b]pyridin-7-yloxy)phenyl)phthalazin-1-amine]	0.033 µM	0.001 µM
Oc1ccc2nccc(Sc3ccc(Nc4nnc(-c5ccc(Cl)cc5)c5ccccc45)cc3)c2c1 [Example 388, 4-(4-(4-(4-Chlorophenyl)phthalazin-1-ylamino)phenylthio)quinolin-6-ol]	0.02 µM	0.003 µM
COc1ccc2nccc(Oc3ccc(Nc4nnc(-c5cc(C)cs5)c5ccccc45)cc3)c2c1 [compound 269, N-(4-((6-(methyloxy)-4-quinolinyl)oxy)phenyl)-4-(4-methyl-2-thienyl)-1-phthalazinamine]	0.049 µM	0.006 µM
O=C(c1cc2nccc(Oc3ccc(Nc4nnc(-c5ccc(Cl)cc5)c5ccccc45)cc3)c2s1)N1CCOCC1 [compound 259, 4-(4-chlorophenyl)-N-(4-((2-(4-morpholinylcarbonyl)thieno-[3,2-b]pyridin-7-yl)oxy)phenyl)-1-phthalazinamine]	0.023 µM	0.006 µM
COc1cnc2c(Nc3ccc(Nc4nnc(-c5ccccc5)c5ccccc45)cc3)ccnc2c1 [Example 40, N^1-(7-methoxy-1,5-naphthyridin-4-yl)-N^4-(4-phenylphthalazin-1-yl)benzene-1,4-diamine]	0.044 µM	0.007 µM
COc1cc2nccc(Oc3ccc(Nc4nnc(-c5ccccc5)c5ccccc45)cc3)c2cc1C#N [Example 392, 7-Methoxy-4-(4-(4-phenylphthalazin-1-ylamino)phenoxy)quinoline-6-carbonitrile]	0.159 µM	0.26 µM
COc1cc2nccc(Oc3ccc(Nc4nnc(-c5cccs5)c5ccccc45)cc3F)c2cc1OC [compound 76, N-(4-((6,7-bis(methyloxy)-4-quinolinyl)oxy)-3-fluorophenyl)-4-(2-thienyl)-1-phthalazinamine]	0.034 µM	0.106 µM
COc1ccc2nccc(Oc3ccc(Nc4nnc(-c5ccccc5)c5ccccc45)cc3)c2c1 [compound 238, N-(4-((6-(methyloxy)-4-quinolinyl)oxy)phenyl)-4-phenyl-1-phthalazinamine]	0.265 µM	0.005 µM
COc1cnc2c(Oc3ccc(Nc4nnc(-c5ccc6[nH]ccc6c5)c5ccccc45)cc3)ccnc2c1 [compound 167, 4-(1H-indol-5-yl)-N-(4-((7-(methyloxy)-1,5-naphthyridin-4-yl)oxy)phenyl)-1-phthalazinamine]	0.013 µM	0.004 µM
COc1cnc2c(Oc3ccc(Nc4nnc(-c5ccc(C)c(N)c5)c5ccccc45)cc3)ccnc2c1 [compound 209, 4-(3-amino-4-methylphenyl)-N-(4-((7-(methyloxy)-1,5-naphthyridin-4-yl)oxy)phenyl)-1-phthalazinamine]	0.012 µM	0.001 µM
COc1cnc2c(Oc3ccc(Nc4nnc(-c5ccccc5)c5ccccc45)cc3F)ccnc2c1 [compound 89, N-(3-fluoro-4-((7-(methyloxy)-1,5-naphthyridin-4-yl)oxy)phenyl)-4-phenyl-1-phthalazinamine]	0.012 µM	0.007 µM
COc1ccc(F)cc1-c1nnc(Nc2ccc(Oc3ccnc4cc(C(N)=O)ccc34)cc2)c2ccccc12 [Example 47, 4-(4-(4-(5-fluoro-2-methoxyphenyl)phthalazin-1-ylamino)phenoxy)quinoline-7-carboxamide]	5 µM	0.138 µM
Fc1cc(Nc2nnc(-c3ccccc3)c3ccccc23)ccc1Oc1ccnc2ccccc12 [compound 115, N-(3-fluoro-4-(4-quinolinyloxy)phenyl)-4-phenyl-1-phthalazinamine]	0.163 µM	0.006 µM
COc1cnc2c(Oc3ccc(Nc4nnc(-c5ccc(Cl)c(C)c5)c5ccccc45)cc3)ccnc2c1 [compound 236, 4-(4-chloro-3-methylphenyl)-N-(4-((7-(methyloxy)-1,5-naphthyridin-4-yl)oxy)phenyl)-1-phthalazinamine]	0.027 µM	0.008 µM

Now from value to molecule:

IC50 (AuroraA-TPX2)	IC50 (AuroraB)	SMILES
0.585 µM	0.069 µM	COc1cnc2c(Sc3ccc(Nc4nnc(OC(C)C)c5ccccc45)cc3)ccnc2c1 [compound 511]
0.051 µM	0.016 µM	COCCOc1ccc(-c2nnc(Nc3ccc(Sc4ccnc5cc(OC)cnc45)cc3)c3ccccc23)cc1 [compound 474]
0.046 µM	0.012 µM	Cc1csc(-c2nnc(Nc3ccc(Oc4ccnc5ccncc45)cc3)c3ccccc23)c1 [compound 429]
0.112 µM	0.051 µM	COc1cc(F)cc2nccc(Sc3ccc(Nc4nnc(-c5ccc(Cl)cc5)c5ccccc45)cc3)c12 [compound 438]
0.066 µM	0.092 µM	c1ccc(-c2nnc(Nc3ccc(Sc4ccnc5[nH]cnc45)cc3)c3ccccc23)cc1 [compound 362, N-(4-(3H-imidazo[4,5-b]pyridin-7-ylthio)phenyl)-4-phenylphthalazin-1-amine]
> 125 µM	> 125 µM	Cc1ccc(-c2nnc(Nc3ccc(Sc4ccnc5ccoc45)cc3)c3ccccc23)cc1N [compound 479]
0.088 µM	0.068 µM	COc1cnc2c(Sc3ccc(Nc4nnc(-c5cccc(Cl)c5)c5ccccc45)cc3)ccnc2c1 [compound 516]
0.077 µM	0.026 µM	COc1cnc2c(Sc3ccc(Nc4nnc(N5CCn6ccnc6C5)c5ccccc45)cc3)ccnc2c1 [compound 576]
> 25 µM	> 25 µM	COc1ccc2c(Oc3ccc(Nc4nnc(-c5ccc(Cl)cc5)c5c4CCC5)cc3)ccnc2c1 [compound 412]
0.042 µM	0.114 µM	COc1cc(OC)c2c(Oc3ccc(Nc4nnc(-c5cc(C)cs5)c5ccccc45)cc3)ncnc2c1 [compound 573]
0.09 µM	0.013 µM	Cc1ccc(-c2nnc(Nc3ccc(Sc4ccnc5cc(C#N)oc45)cc3)c3ccccc23)cc1N [compound 490]
